# pIC50, pKd: −log10 of the molar value.
# What was measured:
# endogenous MLKL in U937 = endogenous MLKL in U937 (Homo sapiens (Human), UniProt Q8NB16); test: Degradation assay: endogenous MLKL in U937 (western blot); settings: U937, 24 h incubation, read-out: Degradation of endogenous MLKL in U937 (DC50 cell-based assay)
# How it was run: (§1)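 MDF (seeded the day before) or U937 cells were treated 24 h at 37 °C, 10% CO2 with compound at 10, 2, 0.4, 0.08 and 0.016 μM final. Endogenous MLKL was quantified by western blot (anti-MLKL 3H1), normalized to GAPDH. Percent degradation was taken relative to DMSO control.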
# [1] = tested on: Immortalised Mouse Dermal Fibroblasts (MDFs); test: Cellular assay: inhibition of TSI induced necroptosis, CellTitre-Glo viability; settings: Mus musculus, Fibroblast; MDF, 3 hours TSI cocktail, Table 27; read-out: Inhibition of TSI-induced necroptosis (IC50 cell-based assay) in MDF
# How it was run: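 Immortalised mouse dermal fibroblasts (2200 cells/well) pretreated 30 min with compound, 10-point 1:3 series from 36 μM, 0.3% DMSO. Then 3 h at 37° C. with TNF (100 ng/ml), Smac mimetic (500 nM) and IDN-6556 (10 μM). CellTiter-Glo luminescence normalised to DMSO (100%) and DMSO+TSI (0%); IC50 from 4-parameter logistic fit.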
# human MLKL (full length) = human MLKL (full length) (Homo sapiens (Human), UniProt Q8NB16); test: KINOMEscan binding assay, human MLKL (full length); settings: hMLKL, Table 25; read-out: MLKL (KD)
# Sequence of human MLKL (full length) (Q8NB16 whole entry): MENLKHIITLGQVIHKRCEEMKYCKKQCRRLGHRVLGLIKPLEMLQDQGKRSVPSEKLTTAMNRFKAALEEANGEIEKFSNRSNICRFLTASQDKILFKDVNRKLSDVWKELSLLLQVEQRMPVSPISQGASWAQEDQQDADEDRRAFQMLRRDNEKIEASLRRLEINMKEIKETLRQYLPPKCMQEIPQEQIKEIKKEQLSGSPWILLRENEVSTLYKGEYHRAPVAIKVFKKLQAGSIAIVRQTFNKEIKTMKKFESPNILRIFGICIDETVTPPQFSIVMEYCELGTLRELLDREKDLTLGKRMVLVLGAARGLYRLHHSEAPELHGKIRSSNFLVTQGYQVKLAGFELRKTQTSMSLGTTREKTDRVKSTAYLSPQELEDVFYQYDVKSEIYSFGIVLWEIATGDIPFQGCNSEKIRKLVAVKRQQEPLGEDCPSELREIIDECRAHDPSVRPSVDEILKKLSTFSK
# How it was run: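 Compound dilutions (11 points, 3-fold, mostly from 30,000 nM, 1% DMSO final) competed with immobilized ligand for DNA- or phage-tagged protein, and bead-bound protein was measured by qPCR. Kd values came from Hill-equation fits with slope −1 (Levenberg-Marquardt).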
# endogenous MLKL in MDF = endogenous MLKL in MDF (Mus musculus (Mouse), UniProt Q9D2Y4); test: Degradation assay: endogenous MLKL in MDF (western blot); settings: MDF cells, 24 h incubation with compound, MLKL adjusted for loading with GAPDH, normalized to DMSO only control, read-out: Degradation of endogenous MLKL in MDF (DC50 cell-based assay)
# Sequence of endogenous MLKL in MDF (Q9D2Y4 whole entry): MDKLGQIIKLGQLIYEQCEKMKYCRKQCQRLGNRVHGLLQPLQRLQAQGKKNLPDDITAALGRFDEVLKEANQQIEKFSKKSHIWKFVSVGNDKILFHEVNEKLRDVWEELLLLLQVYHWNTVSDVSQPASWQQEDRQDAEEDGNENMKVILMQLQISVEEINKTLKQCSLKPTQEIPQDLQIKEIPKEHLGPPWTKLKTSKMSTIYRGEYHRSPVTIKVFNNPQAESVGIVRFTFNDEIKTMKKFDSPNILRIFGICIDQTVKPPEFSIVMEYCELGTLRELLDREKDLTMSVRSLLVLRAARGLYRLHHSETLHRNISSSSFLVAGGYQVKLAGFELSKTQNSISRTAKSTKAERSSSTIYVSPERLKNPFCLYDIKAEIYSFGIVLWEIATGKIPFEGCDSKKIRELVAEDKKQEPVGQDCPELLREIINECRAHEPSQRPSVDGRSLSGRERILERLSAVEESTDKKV
# How it was run: as §1
# Sequence of endogenous MLKL in U937 (Q8NB16 whole entry): as the sequence (Q8NB16 whole entry) above
DC50 (endogenous MLKL in U937),pKd (human MLKL (full length)),DC50 (endogenous MLKL in MDF),SMILES,pIC50 [1]
< 1 µM,6.00 to 8.00,< 1 µM,"C[C@H](Oc1cc(-c2nn(C)c3c(-c4cnn(C5CCN(C(=O)[C@H]6C[C@H]6C6CCN(c7cccc8c7C(=O)N(C7CCC(=O)NC7=O)C8=O)CC6)CC5)c4)cnc(N)c23)ccc1NS(=O)(=O)C(F)F)c1ccc(F)cc1 (stereo in doubt) [Compound 1129, N-[4-(4-amino-7-{1-[1-(2-{1-[2-(2,6-dioxopiperidin-3-yl)-1,3-dioxo-2,3-dihydro-1H-isoindol-4-yl]piperidin-4-yl}-(cis)-cyclopropanecarbonyl)piperidin-4-yl]-1H-pyrazol-4-yl}-1-methyl-1H-pyrazolo[4,3-c]pyridin-3-yl)-2-[(1S)-1-(4-fluorophenyl)ethoxy]phenyl]-1,1-difluoromethane-sulfonamide]",> 6.00
< 1 µM,> 8.00,< 1 µM,"C[C@H](Oc1cc(-c2nn(C)c3c(-c4cnn(C5CCN(C(=O)CC(=O)N6CCN(c7cccc8c7C(=O)N(C7CCC(=O)NC7=O)C8=O)CC6)CC5)c4)cnc(N)c23)ccc1NS(=O)(=O)C(F)F)c1ccc(F)cc1 (stereo partly drawn) [Compound 1098, N-[4-(4-amino-7-{1-[1-(3-{4-[2-(2,6-dioxopiperidin-3-yl)-1,3-dioxo-2,3-dihydro-1H-isoindol-4-yl]piperazin-1-yl}-3-oxopropanoyl)piperidin-4-yl]-1H-pyrazol-4-yl}-1-methyl-1H-pyrazolo[4,3-c]pyridin-3-yl)-2-[(1S)-1-(4-fluorophenyl)ethoxy]phenyl]-1,1-difluoromethanesulfonamide]",5.00 to 6.00
1 to 10 µM,> 8.00,< 1 µM,"C[C@H](Oc1cc(-c2nn(C)c3c(-c4cnn(C5CCN(C(=O)CC6CCN(c7cccc8c7C(=O)N(C7CCC(=O)NC7=O)C8=O)CC6)CC5)c4)cnc(N)c23)ccc1NS(=O)(=O)C(F)F)c1ccc(F)cc1 (stereo partly drawn) [Compound 1048, N-[4-(4-amino-7-{1-[1-(2-{1-[2-(2,6-dioxopiperidin-3-yl)-1,3-dioxo-2,3-dihydro-1H-isoindol-4-yl]piperidin-4-yl}acetyl)piperidin-4-yl]-1H-pyrazol-4-yl}-1-methyl-1H-pyrazolo[4,3-c]pyridin-3-yl)-2-[(1S)-1-(4-fluorophenyl)ethoxy]phenyl]-1,1-difluoromethanesulfonamide]",> 6.00
< 1 µM,> 8.00,1 to 10 µM,"C[C@H](Oc1cc(-c2nn(C)c3c(-c4cnn(C5CCN(CCC6CCN(c7cccc8c7C(=O)N(C7CCC(=O)NC7=O)C8=O)CC6)CC5)c4)cnc(N)c23)ccc1NS(=O)(=O)C(F)F)c1ccc(F)cc1 (stereo partly drawn) [Compound 1076, N-[4-(4-amino-7-{1-[1-(2-{1-[2-(2,6-dioxopiperidin-3-yl)-1,3-dioxo-2,3-dihydro-1H-isoindol-4-yl]piperidin-4-yl}ethyl)piperidin-4-yl]-1H-pyrazol-4-yl}-1-methyl-1H-pyrazolo[4,3-c]pyridin-3-yl)-2-[(1S)-1-(4-fluorophenyl)ethoxy]phenyl]-1,1-difluoromethane-sulfonamide]",> 6.00
< 1 µM,6.00 to 8.00,< 1 µM,"C[C@H](Oc1cc(-c2nn(C)c3c(-c4cnn(C5CCN(C(=O)C6CC7(CCN(c8cccc9c8C(=O)N(C8CCC(=O)NC8=O)C9=O)CC7)C6)CC5)c4)cnc(N)c23)ccc1NS(=O)(=O)C(F)F)c1ccc(F)cc1 (stereo partly drawn) [Compound 1069, N-(4-{4-amino-7-[1-(1-{7-[2-(2,6-dioxopiperidin-3-yl)-1,3-dioxo-2,3-dihydro-1H-isoindol-4-yl]-7-azaspiro[3.5]nonane-2-carbonyl}piperidin-4-yl)-1H-pyrazol-4-yl]-1-methyl-1H-pyrazolo[4,3-c]pyridin-3-yl}-2-[(1S)-1-(4-fluorophenyl)ethoxy]phenyl)-1,1-difluoromethanesulfonamide]",> 6.00
< 1 µM,6.00 to 8.00,< 1 µM,"C[C@H](Oc1cc(-c2nn(C)c3c(-c4cnn(C5CCN(C(=O)C6CC7(C6)CN(c6cccc8c6C(=O)N(C6CCC(=O)NC6=O)C8=O)C7)CC5)c4)cnc(N)c23)ccc1NS(=O)(=O)C(F)F)c1ccc(F)cc1 (stereo partly drawn) [Compound 1074, N-(4-{4-amino-7-[1-(1-{2-[2-(2,6-dioxopiperidin-3-yl)-1,3-dioxo-2,3-dihydro-1H-isoindol-4-yl]-2-azaspiro[3.3]heptane-6-carbonyl}piperidin-4-yl)-1H-pyrazol-4-yl]-1-methyl-1H-pyrazolo[4,3-c]pyridin-3-yl}-2-[(1S)-1-(4-fluorophenyl)ethoxy]phenyl)-1,1-difluoromethanesulfonamide]",> 6.00
< 1 µM,6.00 to 8.00,< 1 µM,"C[C@H](Oc1cc(-c2nn(C)c3c(-c4cnn(C5CCN(C(=O)[C@H]6C[C@@H]6C6CCN(c7cccc8c7C(=O)N(C7CCC(=O)NC7=O)C8=O)CC6)CC5)c4)cnc(N)c23)ccc1NS(=O)(=O)C(F)F)c1ccc(F)cc1 (stereo in doubt) [Compound 1130, N-[4-(4-amino-7-{1-[1-(2-{1-[2-(2,6-dioxopiperidin-3-yl)-1,3-dioxo-2,3-dihydro-1H-isoindol-4-yl]piperidin-4-yl}-(trans)-cyclopropanecarbonyl)piperidin-4-yl]-1H-pyrazol-4-yl}-1-methyl-1H-pyrazolo[4,3-c]pyridin-3-yl)-2-[(1S)-1-(4-fluorophenyl)ethoxy]phenyl]-1,1-difluoromethane-sulfonamide]",> 6.00
< 1 µM,> 8.00,< 1 µM,"C[C@H](Oc1cc(-c2nn(C)c3c(C#CC(=O)N[C@H]4C[C@H](Nc5cccc6c5C(=O)N(C5CCC(=O)NC5=O)C6=O)C4)cnc(N)c23)ccc1NS(=O)(=O)C(F)F)c1ccc(F)cc1 (stereo partly drawn) [Compound 1109, 3-{4-amino-3-[4-(difluoromethanesulfonamido)-3-[(1S)-1-(4-fluorophenyl)ethoxy]phenyl]-1-methyl-1H-pyrazolo[4,3-c]pyridin-7-yl}-N-[(trans)-3-{[2-(2,6-dioxopiperidin-3-yl)-1,3-dioxo-2,3-dihydro-1H-isoindol-4-yl]amino}cyclobutyl]prop-2-ynamide]",5.00 to 6.00
1 to 10 µM,6.00 to 8.00,< 1 µM,"C[C@H](Oc1cc(-c2nn(C)c3c(-c4cnn(C5CCN(C(=O)[C@H]6CC[C@H](Nc7cccc8c7C(=O)N(C7CCC(=O)NC7=O)C8=O)CC6)CC5)c4)cnc(N)c23)ccc1NS(=O)(=O)C(F)F)c1ccc(F)cc1 (stereo partly drawn) [Compound 1058, N-{4-[4-amino-1-methyl-7-(1-{1-[(trans)-4-{[2-(2,6-dioxopiperidin-3-yl)-1,3-dioxo-2,3-dihydro-1H-isoindol-4-yl]amino}cyclohexane-carbonyl]piperidin-4-yl}-1H-pyrazol-4-yl)-1H-pyrazolo[4,3-c]pyridin-3-yl]-2-[(1S)-1-(4-fluorophenyl)ethoxy]phenyl}-1,1-difluoromethanesulfonamide]",> 6.00
< 1 µM,> 8.00,< 1 µM,"C[C@H](Oc1cc(-c2nn(C)c3c(-c4cnn(C5CCN(CCc6ccc7c(c6)C(=O)N(C6CCC(=O)NC6=O)C7=O)CC5)c4)cnc(N)c23)ccc1NS(=O)(=O)C(F)F)c1ccc(F)cc1 (stereo partly drawn) [Compound 1123, N-(4-{4-amino-7-[1-(1-{2-[2-(2,6-dioxopiperidin-3-yl)-1,3-dioxo-2,3-dihydro-1H-isoindol-5-yl]ethyl}piperidin-4-yl)-1H-pyrazol-4-yl]-1-methyl-1H-pyrazolo[4,3-c]pyridin-3-yl}-2-[(1S)-1-(4-fluorophenyl)ethoxy]phenyl)-1,1-difluoromethanesulfonamide]",> 6.00
< 1 µM,6.00 to 8.00,< 1 µM,"Cc1ncsc1-c1ccc(CNC(=O)[C@@H]2C[C@@H](O)CN2C(=O)[C@@H](NC(=O)CCCCCOc2ccc(-c3cnc(N)c4c(-c5ccc(NS(=O)(=O)C(F)F)c(O[C@@H](C)c6ccc(F)cc6)c5)nn(C)c34)cc2)C(C)(C)C)cc1 [Compound 1042, (2S,4R)-1-[(2S)-2-[6-(4-{4-amino-3-[4-(difluoromethanesulfonamido)-3-[(1S)-1-(4-fluorophenyl)ethoxy]phenyl]-1-methyl-1H-pyrazolo[4,3-c]pyridin-7-yl}phenoxy)hexanamido]-3,3-dimethylbutanoyl]-4-hydroxy-N-{[4-(4-methyl-1,3-thiazol-5-yl)phenyl]methyl}pyrrolidine-2-carboxamide]",5.00 to 6.00
< 1 µM,> 8.00,1 to 10 µM,"C[C@H](Oc1cc(-c2nn(C)c3c(-c4cnn(C5CCN(C(=O)COc6ccc7c(c6)C(=O)N(C6CCC(=O)NC6=O)C7=O)CC5)c4)cnc(N)c23)ccc1NS(=O)(=O)C(F)F)c1ccc(F)cc1 (stereo partly drawn) [Compound 1085, N-[4-(4-amino-7-{1-[1-(2-{[2-(2,6-dioxopiperidin-3-yl)-1,3-dioxo-2,3-dihydro-1H-isoindol-5-yl]oxy}acetyl)piperidin-4-yl]-1H-pyrazol-4-yl}-1-methyl-1H-pyrazolo[4,3-c]pyridin-3-yl)-2-[(1 S)-1-(4-fluorophenyl)ethoxy]phenyl]-1,1-difluoromethanesulfonamide]",> 6.00

# From US20250115598A1 (Anaxis Pharma Pty Ltd, priority 2021, published 2025)
